# Target: ROCK2 (Homo sapiens (Human), UniProt O75116)
# Assay: ROCK assay (Caliper LABCHIP peptide phosphorylation)
# Type: biochemical
# Conditions: 5 μM ATP, 1.5 μM peptide substrate
# Procedure: The effectiveness of compounds of the present invention as ROCK inhibitors can be determined in a 30 μL assay containing 20 mM HEPES, pH 7.5, 20 mM MgCl2, 0.015% Brij-35, 4 mM DTT, 5 μM ATP and 1.5 μM peptide substrate (FITC-AHA-AKRRRLSSLRA-OH) (SEQ ID No. 1). Compounds were dissolved in DMSO so that the final concentration of DMSO was <2%, and the reaction was initiated with Rho kinase variants. After incubation, the reaction was terminated by the addition of EDTA and the phosphorylated and non-phosphorylated peptides separated using a LABCHIP® 3000 Reader (Caliper Life Sciences). […] Compounds were tested in dose-response format, and the inhibition of kinase activity was calculated at each concentration of compound. The inhibition data were fit using a curve-fitting program to determine the IC50; i.e., the concentration of compound required to inhibit 50% of kinase activity. Representative Examples were tested in the ROCK assay described above and found having ROCK inhibitory activity. A range of ROCK inhibitory activity (IC50 values) of ≤50 μM (50000 nM) was observed. Table A below lists the ROCK IC50 values measured for the following examples.
# Chain of ROCK2 (O75116 whole entry, species assumed): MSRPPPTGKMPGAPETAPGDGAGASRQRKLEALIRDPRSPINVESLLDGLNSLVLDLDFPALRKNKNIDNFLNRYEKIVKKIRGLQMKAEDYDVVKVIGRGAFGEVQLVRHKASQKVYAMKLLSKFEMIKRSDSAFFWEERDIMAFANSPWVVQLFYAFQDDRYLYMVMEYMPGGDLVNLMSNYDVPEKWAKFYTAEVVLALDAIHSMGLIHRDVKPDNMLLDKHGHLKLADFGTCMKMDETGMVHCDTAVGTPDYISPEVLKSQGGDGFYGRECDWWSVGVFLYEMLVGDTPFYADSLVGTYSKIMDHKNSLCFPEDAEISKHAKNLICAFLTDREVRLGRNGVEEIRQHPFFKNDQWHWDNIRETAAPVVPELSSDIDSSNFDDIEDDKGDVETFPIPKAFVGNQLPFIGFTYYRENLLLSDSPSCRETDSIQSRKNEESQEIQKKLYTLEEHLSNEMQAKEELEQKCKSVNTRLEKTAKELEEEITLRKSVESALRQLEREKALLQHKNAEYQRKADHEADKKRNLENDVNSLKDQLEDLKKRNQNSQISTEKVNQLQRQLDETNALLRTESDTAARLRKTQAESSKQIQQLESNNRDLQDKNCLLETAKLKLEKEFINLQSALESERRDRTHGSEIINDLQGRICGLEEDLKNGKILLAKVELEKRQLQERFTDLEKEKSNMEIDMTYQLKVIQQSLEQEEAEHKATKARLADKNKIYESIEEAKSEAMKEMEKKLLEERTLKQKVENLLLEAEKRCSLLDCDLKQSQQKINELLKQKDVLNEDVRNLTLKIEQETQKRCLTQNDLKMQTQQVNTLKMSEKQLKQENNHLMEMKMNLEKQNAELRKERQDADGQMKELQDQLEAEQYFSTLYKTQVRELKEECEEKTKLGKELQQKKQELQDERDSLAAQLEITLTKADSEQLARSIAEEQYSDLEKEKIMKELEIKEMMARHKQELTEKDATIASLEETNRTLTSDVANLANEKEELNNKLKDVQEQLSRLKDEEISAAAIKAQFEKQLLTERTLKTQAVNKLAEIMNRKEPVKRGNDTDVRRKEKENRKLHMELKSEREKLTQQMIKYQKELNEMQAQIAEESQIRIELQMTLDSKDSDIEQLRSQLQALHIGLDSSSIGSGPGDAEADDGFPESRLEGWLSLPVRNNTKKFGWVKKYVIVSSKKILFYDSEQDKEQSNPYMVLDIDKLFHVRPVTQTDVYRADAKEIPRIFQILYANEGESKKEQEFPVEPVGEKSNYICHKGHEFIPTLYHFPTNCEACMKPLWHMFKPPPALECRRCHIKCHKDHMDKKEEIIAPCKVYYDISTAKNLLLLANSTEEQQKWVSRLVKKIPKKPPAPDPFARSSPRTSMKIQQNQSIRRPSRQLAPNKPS
row,IC50,Compound
1,0.562 µM,"C#CCC1NC(=O)N([C@H]2C[C@@]3(C[C@H](Oc4ncccc4C(N)=O)C3)C2)C1=O (stereo partly drawn) [Example 14, 2-{[(αR)-6-[2,5-dioxo-4-(prop-2-yn-1-yl)imidazol-idin-1-yl]spiro-[3.3]heptan-2-yl]oxy}pyridine-3-carboxamide]"
2,0.03 µM,"NC(=O)c1cccnc1O[C@H]1C[C@]2(C1)C[C@H](N1C(=O)NC(CC3CCCC3)C1=O)C2 (stereo partly drawn) [Example 45, 2-{[(αR)-6-[4-(cyclopentyl-methyl)-2,5-dioxo-imidazolidin-1-yl]spiro[3.3]-heptan-2-yl]oxy}-pyridine-3-carbox-amide]"
3,0.02 µM,"NC(=O)c1cccnc1O[C@H]1C[C@]2(C1)C[C@H](N1C(=O)NC(CC3CC4CCC3CC4)C1=O)C2 (stereo partly drawn) [Example 70, 2-{[(αR)-6-[4-({bicyclo[2.2.2]-octan-2-yl}-methyl)-2,5-dioxo-imidazolidin-1-yl]spiro[3.3]-heptan-2-yl]oxy}-pyridine-3-carbox-amide]"
4,0.05 µM,"NC(=O)c1cccnc1O[C@H]1C[C@]2(C1)C[C@H](N1C(=O)NC(CC(C(F)(F)F)C(F)(F)F)C1=O)C2 (single isomer, unassigned) [Example 47]"
5,0.155 µM,"CCC(CC)C1NC(=O)N([C@H]2C[C@@]3(C[C@H](Oc4ncccc4C(N)=O)C3)C2)C1=O (stereo partly drawn) [Example 51, 2-{[(αR)-6-[2,5-dioxo-4-(pentan-3-yl)imidazolidin-1-yl]spiro[3.3]heptan-2-yl]oxy}pyridine-3-carboxamide]"
6,2.02 µM,"NC(=O)c1cccnc1O[C@H]1C[C@]2(C1)C[C@H](N1C(=O)C3CCCN3C1=O)C2 (stereo partly drawn) [Example 23, 2-{[(αR)-6-{1,3-dioxo-hexahydro-1H-pyrrolo[1,2-c]imidazolidin-2-yl}spiro[3.3]-heptan-2-yl]oxy}-pyridine-3-carbox-amide]"
7,0.19 µM,"NC(=O)c1cccnc1O[C@H]1C[C@]2(C1)C[C@H](N1C(=O)NC3(CCCC3)C1=O)C2 (stereo partly drawn) [Example 8, 2-{[(αR)-6-{2,4-dioxo-1,3-diaza-spiro[4.4]nonan-3-yl}spiro[3.3]-heptan-2-yl]oxy}-pyridme-3-carbox-amide]"
8,1.66 µM,"CC[C@@H]1NC(=O)N([C@H]2C[C@@]3(C[C@H](Oc4ncccc4C(N)=O)C3)C2)C1=O (stereo partly drawn) [Example 35, 2-{[(αR)-6-((4S)-4-ethyl-2,5-dioxo-imidazolidin-1-yl]-spiro[3.3]heptan-2-yl]oxy}pyridine-3-carboxamide]"
9,0.27 µM,"NC(=O)c1cccnc1O[C@H]1C[C@]2(C1)C[C@H](N1C(=O)NC(CCc3ccccc3)C1=O)C2 (single isomer, unassigned) [Example 12, 2-{[(αR)-6-(4-(2-phenylethyl)-2,5-dioxoimidazol-idin-1-yl)spiro-[3.3]heptan-2-yl]oxy}pyridine-3-carboxamide]"
10,1.34 µM,"NC(=O)c1cccnc1O[C@H]1C[C@]2(C1)C[C@H](N1C(=O)C3CCCCN3C1=O)C2 (stereo partly drawn) [Example 17, 2-{[(αR)-6-{1,3-dioxo-hexahydro-1H-piperidino[1,2-c]imidazolidin-2-yl}spiro[3.3]heptan-2-yl]oxy}pyridine-3-carboxamide]"
11,0.224 µM,"NC(=O)c1cccnc1OC1CC2(C1)CC(N1C(=O)CN(Cc3ccccc3)C1=O)C2 (stereo not drawn) [Example 10, 2-{[6-(3-benzyl-2,5-dioxoimidazol-idin-1-yl)spiro-[3.3]heptan-2-yl]-oxy}pyridine-3-carboxamide]"
12,0.963 µM,"C=CC[C@@H]1CC(=O)N([C@H]2C[C@@]3(C[C@H](Oc4ncccc4C(N)=O)C3)C2)C(=O)N1 (stereo partly drawn) [Example 78, 2-{[(αR)-6-[(4R)-2,6-dioxo-4-(prop-2-en-1-yl)-1,3-diazinan-1-yl]-spiro[3.3]heptan-2-yl]oxy}pyridine-3-carboxamide]"
13,0.289 µM,"CC(C)(O)CC1NC(=O)N([C@H]2C[C@@]3(C[C@H](Oc4ncccc4C(N)=O)C3)C2)C1=O (stereo partly drawn) [Example 58, 2-{[(αR)-6-[4-(2-hydroxy-2-methyl-propyl)-2,5-dioxo-imidazolidin-1-yl]-spiro[3.3]heptan-2-yl]oxy}pyridine-3-carboxamide]"
14,0.311 µM,"NC(=O)c1cccnc1O[C@H]1C[C@]2(C1)C[C@H](N1C(=O)NC(CCCC(F)(F)F)C1=O)C2 (single isomer, unassigned) [Example 60, 2-{[(αR)-6-[2,5-dioxo-4-(4,4,4-trifluorobutyl)-imidazolidin-1-yl]-spiro[3.3]heptan-2-yl]oxy}pyridine-3-carboxamide]"
15,0.129 µM,"CC(C)(C)C1NC(=O)N([C@H]2C[C@@]3(C[C@H](Oc4ncccc4C(N)=O)C3)C2)C1=O (stereo partly drawn) [Example 7, 2-{[(αR)-6-(4-tert-butyl-2,5-dioxo-imidazolidin-1-yl)spiro[3.3]-heptan-2-yl]oxy}-pyridine-3-carbox-amide]"
16,0.264 µM,"CC(C[C@H]1NC(=O)N([C@H]2C[C@@]3(C[C@H](Oc4ncccc4C(N)=O)C3)C2)C1=O)c1ccccc1 (stereo partly drawn) [Example 96, 2-(((αR)-6-((R)-2,5-dioxo-4-(2-phenyl-propyl)imidazolidin-1-yl)spiro[3.3]heptan-2-yl)oxy)nicotinamide]"
17,2.38 µM,"CC(C)(C)OC(=O)NCCC1NC(=O)N([C@H]2C[C@@]3(C[C@H](Oc4ncccc4C(N)=O)C3)C2)C1=O (single isomer, unassigned) [Example 21, tert-butyl N-(2-{2,5-dioxo-1-[(αR)-6-[(3-carbamoylpyridin-2-yl)oxy]spiro-[3.3]heptan-2-yl]-imidazolidin-4-yl}ethyl)carbamate]"
18,0.005 µM,"NC(=O)c1cccnc1O[C@H]1C[C@]2(C1)C[C@H](N1C(=O)CN(c3cccc(C(F)(F)F)c3)C1=O)C2 (stereo partly drawn) [Example 82, 2-(((αR)-6-(2,5-dioxo-3-(3-(trifluoromethyl)phenyl)imidazolidin-1-yl)spiro[3.3]heptan-2-yl)oxy)nicotinamide]"
19,0.744 µM,"CC(C)(C)OC(=O)NCCCC1NC(=O)N([C@H]2C[C@@]3(C[C@H](Oc4ncccc4C(N)=O)C3)C2)C1=O (stereo partly drawn) [Example 15, tert-butyl N-(3-{2,5-dioxo-1-[(αR)-6-[(3-carbamoylpyridin-2-yl)oxy]spiro-[3.3]heptan-2-yl]imidazolidin-4-yl}propyl)-carbamate]"
20,0.614 µM,"NC(=O)c1cccnc1O[C@H]1C[C@]2(C1)C[C@H](N1C(=O)C[C@H](c3cccc(Br)c3)NC1=O)C2 (stereo partly drawn) [Example 77, 2-{[(αR)-6-[(4R)-4-(3-bromophenyl)-2,6-dioxo-1,3-diazinan-1-yl]-spiro[3.3]heptan-2-yl]oxy}pyridine-3-carboxamide]"
21,0.902 µM,"NC(=O)c1cccnc1O[C@H]1C[C@]2(C1)C[C@H](N1C(=O)NC3(CCC3)C1=O)C2 (stereo partly drawn) [Example 16, 2-{[(αR)-6-{6,8-dioxo-5,7-diaza-spiro[3.4]octan-7-yl}spiro[3.3]-heptan-2-yl]oxy}-pyridine-3-carbox-amide]"
22,0.075 µM,[H][C@]1(Oc2ncccc2C(N)=O)C[C@@]2(C[C@H](N3C(=O)C[C@H](CCc4ccccc4)NC3=O)C2)C1 (stereo partly drawn) [Example 74]
23,1.63 µM,"Cn1cnc(CC2NC(=O)N([C@H]3C[C@@]4(C[C@H](Oc5ncccc5C(N)=O)C4)C3)C2=O)c1 (stereo partly drawn) [Example 19, 2-{[(αR)-6-[2,5-dioxo-4-(1-methyl-4-imidazylmethyl)-imidazolidin-1-yl]spiro[3.3]heptan-2-yl]oxy}pyridine-3-carboxamide]"
24,0.421 µM,"CC(C)(O)CCC1NC(=O)N([C@H]2C[C@@]3(C[C@H](Oc4ncccc4C(N)=O)C3)C2)C1=O (stereo partly drawn) [Example 62, 2-{[(αR)-6-[4-(3-hydroxy-3-methyl-butyl)-2,5-dioxo-imidazolidin-1-yl]-spiro[3.3]heptan-2-yl]oxy}pyridine-3-carboxamide]"
25,0.091 µM,"NC(=O)c1cccnc1O[C@H]1C[C@]2(C1)C[C@H](N1C(=O)NC(CC3CCCCC3)C1=O)C2 (single isomer, unassigned) [Example 6, 2-{[(αR)-6-(4-cyclohexylmethyl-2,5-dioxoimidazol-idin-1-yl)spiro-[3.3]heptan-2-yl]-oxy}pyridine-3-carboxamide]"
26,0.029 µM,"CC(C)CC1NC(=O)N([C@H]2C[C@@]3(C[C@H](Oc4ncccc4C(N)=O)C3)C2)C1=O (stereo partly drawn) [Example 44, 2-{[(αR)-6-[4-(2-methylpropyl)-2,5-dioxoimidazolidin-1-yl]spiro[3.3]-heptan-2-yl]oxy}-pyridine-3-carbox-amide]"
27,0.01 µM,"CC(C)(C)C[C@@H]1NC(=O)N([C@H]2C[C@@]3(C[C@H](Oc4ncccc4C(N)=O)C3)C2)C1=O (stereo partly drawn) [Example 25, 2-{[(αR)-6-[(4S)-4-(2,2-dimethyl-propyl)-2,5-dioxo-imidazolidin-1-yl]-spiro[3.3]heptan-2-yl]oxy}pyridine-3-carboxamide]"
28,0.156 µM,"NC(=O)c1cccnc1O[C@H]1C[C@]2(C1)C[C@H](N1C(=O)N[C@@H](CC(F)(F)F)C1=O)C2 (stereo partly drawn) [Example 32, 2-{[(αR)-6-[(4S)-2,5-dioxo-4-(2,2,2-trifluoroethyl)-imidazolidin-1-yl]-spiro[3.3]heptan-2-yl]oxy}pyridine-3-carboxamide]"
29,0.045 µM,"CC[C@H](C)[C@@H]1NC(=O)N([C@H]2C[C@@]3(C[C@H](Oc4ncccc4C(N)=O)C3)C2)C1=O (stereo partly drawn) [Example 27, 2-{[(αR)-6-[(4S)-4-[(2S)-butan-2-yl]-2,5-dioxoimidazol-idin-1-yl]spiro-[3.3]heptan-2-yl]-oxy}pyridine-3-carboxamide]"

row,Compound,IC50
1,"CC(C)(C)OCC1NC(=O)N([C@H]2C[C@@]3(C[C@H](Oc4ncccc4C(N)=O)C3)C2)C1=O (stereo partly drawn) [Example 9, 2-{[(αR)-6-(4-tert-butoxymethyl-2,5-dioxoimidazolidin-1-yl)spiro[3.3]-heptan-2-yl]oxy}-pyridine-3-carbox-amide]",0.219 µM
